Results reported in US8703800B2, “Nitrate and diazeniumdiolate derivatives of pioglitazone” (Cardiolynx AG, priority 2010, dated 2014).
Like-named read-outs stand apart in the source and are kept apart here.

Key:
[1] = system: rat aortic ring segments preconstricted with phenylephrine; assay: Isometric tension studies: vasodilation of preconstricted rat aortic ring segments; format: cell-based; conditions: for EC50: read-out: pD2-value (vasodilatory potency) (converted)
Experimental: Vasodilation of rat aortic ring segments preconstricted with phenylephrine, Example 2, Table 1. X-axis: relaxation in %; y-axis: log concentration (log M).
For in vitro characterization of the new pioglitazone nitrate (1) of Example 1, vasodilatory potency was determined by isometric tension studies. According to a published procedure rat aortic ring segments were preconstricted by the alpha-receptor-agonist phenylephrine [Daiber, A. et al., Mol Pharmacol 66 (2004), 1372-1382; Wendt, M. et al., Free Radic Biol Med 39 (2005), 381-391; Munzel, T. et al., J Clin Invest 95 (1995), 187-194]. After reaching a stable preconstriction of vascular tone, the vessels were dose-dependently vasodilated until the final tone at the highest added concentration of the vasodilator was reached. The vasodilators were added at half-logarithmic concentrations starting at 10^−8 M (=10 nanomolar). Vasodilatory potency was compared creating a concentration-relaxation curve. The data are based on experiments with aorta from at least 6 rats on 3 different days.

[2] = system: isolated rat cardiac mitochondria; assay: ROS/RONS formation in isolated mitochondria (L-012 chemiluminescence); format: biochemical
From the text: Reactive oxygen and nitrogen species formation in response to in vitro challenge of isolated rat cardiac mitochondria based on reaction of the chemiluminescence dye L-012 (a luminal analogue), Example 3, Table 2. X-axis: compounds tested with concentration [μM]; y-axis: photons n per 1 sec of emission of chemiluminescence light (ECL).
Vascular oxidative stress is a well-known side effect of nitrate tolerance (an adverse condition that develops under chronic nitrate therapy). Therefore, the induction of reactive oxygen and nitrogen species formation in response to in vitro challenges with the test compounds was assessed in isolated mitochondria according to a published procedure [Daiber, A. et al., Mol Pharmacol 66 (2004), 1372-1382; Daiber, A. et al., Biochem Biophys Res Commun 338 (2005), 1865-1874; Daiber, A. et al., Mol Pharmacol 68 (2005), 579-588]. The assay is based on the reaction of the chemiluminescence dye L-012 (a luminol analogue) with reactive oxygen and nitrogen species (RONS, e.g. superoxide anion radicals, peroxynitrite anions or nitrogen dioxide radicals) and subsequent emission of chemiluminescence light (ECL). The signal is counted in photons/time (=counts/30s). The data are based on experiments with cardiac mitochondria from at least 6 rats on 3 different days.

[3] = rat aortic rings preconstricted with phenylephrine
[4] = rat aortic rings preconstricted with phenylephrine, concentration-relaxation curve

EC50 [1, 4] [µM] | ROS formation, Mean ([2]; rat, 10 μM) [counts/1 s] | ROS formation, Mean ([2]; rat, 100 μM) [counts/1 s] | ROS formation, Mean ([2]; rat, 1000 μM) [counts/1 s] | SMILES | Isometric tension, relaxation (Mean ± SEM) ([1]; Log [M] −3.5) [%] | Isometric tension, relaxation (Mean ± SEM) ([1]; Log [M] −4) [%] | Isometric tension, relaxation (Mean ± SEM) ([1]; Log [M] −4.5) [%] | Isometric tension, relaxation (Mean ± SEM) ([1]; Log [M] −5) [%] | Isometric tension, relaxation (Mean ± SEM) ([1]; Log [M] −5.5) [%] | Isometric tension, relaxation (Mean ± SEM) ([1]; Log [M] −6) [%] | Isometric tension, relaxation (Mean ± SEM) ([1]; Log [M] −6.5) [%] | Isometric tension, relaxation (Mean ± SEM) ([1]; Log [M] −7) [%] | Isometric tension, relaxation (Mean ± SEM) ([1]; Log [M] −7.5) [%] | Isometric tension, relaxation (Mean ± SEM) ([1]; Log [M] −8) [%] | Vasodilatory potency, result in words [1, 3] | ROS formation, Mean ([2]; Conc. 10 μM, basal 627.7) [counts/1 s] | ROS formation, Mean ([2]; Conc. 100 μM, basal 627.7) [counts/1 s] | ROS formation, Mean ([2]; Conc. 1000 μM, basal 627.7) [counts/1 s] | also measured
~316 | 563 | 874.5 | 801.7 | CCc1ccc(CCOc2ccc(CC3SC(=O)NC3=O)cc2)nc1 (racemic) [Pioglitazone] | 55.47 ± 5.98 | 22.40 ± 3.34 | 11.19 ± 3.82 | 8.30 ± 3.49 | 5.63 ± 3.15 | 5.40 ± 2.88 | 4.14 ± 2.57 | 3.42 ± 1.68 | 2.92 ± 1.49 | 0 | weak relaxing effects |  |  |  | 
 |  |  |  | O=[N+]([O-])OCC(CO[N+](=O)[O-])O[N+](=O)[O-] [Glycerol trinitrate] |  |  |  |  |  |  |  |  |  |  |  | 597.7 | 898.5 | 2762 | 
 |  |  |  | O=[N+]([O-])O[C@@H]1CO[C@H]2[C@@H]1OC[C@@H]2O [ISMN, Isosorbide-5-mononitrate] | 64.17 ± 4.11 | 43.46 ± 3.28 | 16.76 ± 2.29 | 9.29 ± 2.23 | 5.47 ± 1.95 | 3.73 ± 1.39 | 3.86 ± 1.04 | 0 |  |  |  |  |  |  | Isometric tension, relaxation (Mean ± SEM) ([1]; Log [M] −2): 98.77 ± 0.75%; Isometric tension, relaxation (Mean ± SEM) ([1]; Log [M] −2.5): 94.91 ± 1.28%; Isometric tension, relaxation (Mean ± SEM) ([1]; Log [M] −3): 82.81 ± 3.45%
 |  |  |  | O=C(NCCO[N+](=O)[O-])OCCl [Linker 2, chloromethyl N-2-nitrooxyethylcarbamate] | 96.18 ± 2.20 | 91.00 ± 5.36 | 86.66 ± 6.04 | 80.97 ± 6.47 | 68.37 ± 6.89 | 51.19 ± 6.35 | 30.73 ± 5.12 | 16.85 ± 3.29 | 8.25 ± 2.09 | 0 |  | 622.5 | 674.7 | 1395.8 | pD2-value (vasodilatory potency) [1, 4]: approximately 6; Effect on RONS formation, result in words ([2]; in vitro challenge of isolated rat cardiac mitochondria): has also some increasing effect
~1 | 697.3 | 609.8 | 889.2 | CCc1ccc(CCOc2ccc(CC3SC(=O)N(COC(=O)NCCO[N+](=O)[O-])C3=O)cc2)nc1 (stereo not drawn) [compound 1] | 98.13 ± 5.98 | 87.22 ± 3.34 | 79.07 ± 3.82 | 70.11 ± 3.49 | 57.49 ± 3.15 | 43.34 ± 2.88 | 27.72 ± 2.57 | 12.82 ± 1.68 | 2.65 ± 1.49 | 0 | even more active than isosorbide dinitrate |  |  |  | Effect on RONS formation, result in words [2]: does not have a pronounced effect on RONS formation
